{"source": "paper PMC4942819", "about": "(Scientific Reports, 2016)", "key": {"XDR-TB clinical isolates": {"tested_on": "XDR-TB clinical isolates", "assay": "microbe, parasite or virus in culture", "format": "cell-based, Mycobacterium tuberculosis", "conditions": "for MIC: Mycobacterium tuberculosis"}, "MDR-TB clinical isolates": {"tested_on": "MDR-TB clinical isolates", "assay": "microbe, parasite or virus in culture", "format": "cell-based", "conditions": "Mycobacterium tuberculosis"}, "M. tuberculosis H37Rv": {"tested_on": "M. tuberculosis H37Rv", "assay": "MABA checkerboard synergy assay", "format": "cell-based, Mycobacterium tuberculosis", "conditions": "for MIC: Mycobacterium tuberculosis, H37RV, 336 h, checkerboard, drug alone, read-out: MIC against H37Rv, MIC alone; for MIC against H37Rv, MIC in combo.: in combination with TB1001"}, "[1]": {"tested_on": "Mycobacterium tuberculosis H37Rv", "assay": "microplate Alamar blue assay (MABA), MIC", "format": "cell-based", "conditions": "replicating H37Rv"}, "Mycobacterium avium": {"tested_on": "Mycobacterium avium", "assay": "microdilution plate assay, MIC", "format": "cell-based"}, "Vero cells": {"tested_on": "Vero cells", "assay": "cytotoxicity, MTT assay", "format": "cell-based", "conditions": "Chlorocebus sabaeus, Vero; cytotoxicity; read-out: IC50 Vero", "procedure": "The compounds were examined for toxicity (IC50) using MTT assay. Briefly, cells (3 ~ 5 × 10^3 cells/well) were seeded in a 96-well plate. After 24 h incubation, the cells were treated with various concentrations of drugs for 24, 48, 72 h, respectively. Columns one and two in the assay plates contained-media +0.1% DMSO for a negative control ,Then, 20 μl of a 5 mg/mL MTT solution was added to each well, and the plates were incubated for an additional 2~4 h at 37 °C. The medium was subsequently discarded, and DMSO 150 μL was added to dissolve the formazan. Oscillate 15 min, the OD 570 was measured using a Spectra MAX M5 microplate spectrophotometer (Molecular Devices, CA, USA), and the IC50 values were calculated.\nCompound MIC was conducted by ShangHai Chempartner Co., Ltd (Shanghai, China) using the microplate Alamar Blue assay (MABA) against Mycobacterium tuberculosis H37Ra (ATCC 25177). Cytotoxicity of tested compounds was assessed on Vero cells."}, "[2]": {"conditions": "read-out: MIC, XDR-TB strain X15"}, "[3]": {"conditions": "read-out: MIC, XDR-TB strain X17"}, "[4]": {"conditions": "read-out: MIC, MDR-TB strain M3"}, "[5]": {"conditions": "read-out: MIC, MDR-TB strain M4"}, "[6]": {"conditions": "read-out: MIC, MDR-TB strain M8"}, "[7]": {"conditions": "read-out: MIC, MDR-TB strain M18"}, "[8]": {"conditions": "clinical isolate, Table 2 prints no unit, test range 0.0156 to 64 μg/mL"}}, "note": "Where two headings read alike, the source gives them in different places."}
{"smiles": "[H]/N=C(/N)N[C@H]1[C@H](O)[C@@H](O)[C@H](O[C@@H]2O[C@@H](C)[C@](O)(C=O)[C@H]2O[C@@H]2O[C@@H](CO)[C@H](O)[C@@H](O)[C@@H]2NC)[C@@H](N/C(N)=N\\[H])[C@@H]1O", "note": "[SM, streptomycin]", "values": [{"measurement": "MIC", "setting": "XDR-TB clinical isolates; [2]", "result": 8, "unit": "µg/mL"}, {"measurement": "MIC", "setting": "XDR-TB clinical isolates; [3]", "result": 64, "unit": "µg/mL"}, {"measurement": "MIC", "setting": "MDR-TB clinical isolates; [4]", "result": 64, "unit": "µg/mL"}, {"measurement": "MIC", "setting": "MDR-TB clinical isolates; [5]", "result": 8, "unit": "µg/mL"}, {"measurement": "MIC", "setting": "MDR-TB clinical isolates; [6]", "result": 64, "unit": "µg/mL"}, {"measurement": "MIC", "setting": "MDR-TB clinical isolates; [7]", "result": 64, "unit": "µg/mL"}]}
{"smiles": "CC(=O)NC[C@H]1CN(c2ccc(N3CCOCC3)c(F)c2)C(=O)O1", "note": "[LZD, Linezolid]", "values": [{"measurement": "MIC", "setting": "M. tuberculosis H37Rv", "result": 0.145, "unit": "µg/mL"}, {"measurement": "MIC against H37Rv, MIC in combo.", "setting": "M. tuberculosis H37Rv", "result": 0.1, "unit": "µg/mL"}]}
{"smiles": "NC[C@H]1O[C@H](O[C@H]2[C@H](O)[C@@H](O[C@H]3O[C@H](CO)[C@@H](O)[C@H](N)[C@H]3O)[C@H](N)C[C@@H]2N)[C@H](O)[C@@H](O)[C@@H]1O", "note": "[KM, kanamycin]", "values": [{"measurement": "MIC, XDR-TB strain X15", "setting": "XDR-TB clinical isolates; [8]", "result": 64, "unit": "µg/mL"}, {"measurement": "MIC, XDR-TB strain X17", "setting": "XDR-TB clinical isolates; [8]", "result": 64, "unit": "µg/mL"}]}
{"smiles": "NNC(=O)c1ccncc1", "note": "[INH, isoniazid]", "values": [{"measurement": "MIC", "setting": "M. tuberculosis H37Rv", "result": 0.03, "unit": "µg/mL"}, {"measurement": "MIC against H37Rv, MIC in combo.", "setting": "M. tuberculosis H37Rv", "result": 0.01, "unit": "µg/mL"}, {"measurement": "MIC", "setting": "[1]", "result": 0.47, "unit": "µg/mL"}, {"measurement": "MIC", "setting": "Mycobacterium avium", "result": 16, "unit": "µg/mL"}, {"measurement": "MIC", "setting": "XDR-TB clinical isolates; [2]", "result": 16, "unit": "µg/mL"}, {"measurement": "MIC", "setting": "XDR-TB clinical isolates; [3]", "result": 1, "unit": "µg/mL"}, {"measurement": "MIC", "setting": "MDR-TB clinical isolates; [4]", "result": 8, "unit": "µg/mL"}, {"measurement": "MIC", "setting": "MDR-TB clinical isolates; [5]", "result": 1, "unit": "µg/mL"}, {"measurement": "MIC", "setting": "MDR-TB clinical isolates; [6]", "result": 4, "unit": "µg/mL"}, {"measurement": "MIC", "setting": "MDR-TB clinical isolates; [7]", "result": 1, "unit": "µg/mL"}, {"measurement": "IC50", "setting": "Vero cells", "result": "> 100", "unit": "µg/mL"}]}
{"smiles": "CC[C@@H](CO)NCCN[C@@H](CC)CO", "note": "[EMB, ethambutol]", "values": [{"measurement": "MIC", "setting": "XDR-TB clinical isolates; [2]", "result": 16, "unit": "µg/mL"}, {"measurement": "MIC", "setting": "XDR-TB clinical isolates; [3]", "result": 16, "unit": "µg/mL"}, {"measurement": "MIC", "setting": "MDR-TB clinical isolates; [4]", "result": 4, "unit": "µg/mL"}, {"measurement": "MIC", "setting": "MDR-TB clinical isolates; [5]", "result": 2, "unit": "µg/mL"}, {"measurement": "MIC", "setting": "MDR-TB clinical isolates; [6]", "result": 4, "unit": "µg/mL"}, {"measurement": "MIC", "setting": "MDR-TB clinical isolates; [7]", "result": 8, "unit": "µg/mL"}]}
{"smiles": "NCC[C@H](O)C(=O)N[C@@H]1C[C@H](N)[C@@H](O[C@H]2O[C@H](CN)[C@@H](O)[C@H](O)[C@H]2O)[C@H](O)[C@H]1O[C@H]1O[C@H](CO)[C@@H](O)[C@H](N)[C@H]1O", "note": "[AMK, amikacin]", "values": [{"measurement": "MIC", "setting": "XDR-TB clinical isolates; [2]", "result": 64, "unit": "µg/mL"}, {"measurement": "MIC", "setting": "XDR-TB clinical isolates; [3]", "result": 64, "unit": "µg/mL"}]}
